Assay results as given in patent US11066651B2, “Methods and compositions relating to viral latency” (University of Utah Research Foundation, priority 2009, dated 2021).
Entries after “also recorded” stand apart in the source; their conditions may differ.

Columns and labels:
[1] = system: Latently infected cells (DHIV-infected NP cells); assay: HIV-1 reactivation in latently infected NP cells by signaling agonists (intracellular p24 Gag, flow cytometry); assay type: cell-based, human; conditions: agonist 3 days at the concentration of b193; for ability of agonist to reactivate viral gene expression (in words): p24 Gag+ cells
Experimental: (§1) To assess intracellular p24-gag expression, 5×10^5 cells were fixed and permeabilized with Citofix/Cytoperm during 30 min at 4° C. (BD Biosciences, San Diego, Calif.). Cells were washed with Perm/Wash Buffer (BD Biosciences) and stained with 1:40 dilution of anti-p24 antibody (AG3.0) in 100 μl of Perm/Wash Buffer during 30 min at 4° C. Cells were washed with Perm/Wash Buffer and incubated with 1:100 Alexa Fluor 488 goat anti-mouse IgG (H+L) in 100 μl of Perm/Wash Buffer during 30 min at 4° C. Cells were washed with Perm/Wash Buffer and samples were analyzed by flow cytometry. Forward versus side scatter plots were used to define the live population. In all the experiments, HIV p24-gag staining regions were set with uninfected cells treated in parallel.
To complement the inhibitor studies, additional experimentation was conducted using agonists for the above signaling pathways. Latently infected cells were either left untreated or incubated with agonist. As a positive control, cells were treated with αCD3/CD28. The ability of the agonist to promote viral reactivation was then evaluated by detection of intracellular p24^Gag as shown above (FIG. 4). Phytohemagglutinin (PHA), a lectin that binds non-specifically to carbohydrate moieties on surface glycoproteins and acts as a potent polyclonal mitogen for T cells, was the first to be tested.
(§2) The concentration of each inhibitor or activator was as follows: 5 μM H-89, 50 μM PD98059, 250 nM Wortmannin, 15 nM bisindolylmaleimide II (BIM), 5 μM Rottlerin, 10 μM PP2, 50 μg/ml I kappa B Kinase Inhibitor Peptide, Cell-Permeable (IKK inh.) and 50 μM Forskolin (Calbiochem, San Diego, Calif.); 50 μM SB202190 and 125 ng/ml Leflunomide (Alexis Biochemicals, San Diego, Calif.); 10 nM Gö6976 and 1 μM Prostratin (LC Laboratories, Woburn, Mass.); 25 ng/ml TNF-α (Prepotech Inc.); 10 ng/ml phorbol 12-myristate 13-acetate, 1 μM Ionomycin, 5 μg/ml L-PHA and 1 mM Valproic Acid (Sigma, Saint Louis, Mo.); 500 ng/ml Cyclosporin A (Fluka/Sigma); 25 μM SP600125 (A.G. Scientific Int., San Diego, Calif.); and 20 μM Integrase Inhibitor (118-D-24).

[2] = system: Jurkat latently infected cells; conditions: Jurkat cell line; cited from earlier work
DHIV-infected NP cells = assay: HIV-1 reactivation by αCD3/CD28 in latently infected NP cells in the presence of signaling inhibitors (intracellular p24 Gag, flow cytometry); assay type: cell-based, human; conditions: αCD3/CD28 restimulation 3 days; for inhibition of reactivation: inhibitor preincubated 2 hr
Experimental: as §1
2.5×10^5 cells were reactivated with beads coated with anti-CD3 and anti-CD28 during 72 hours in the presence of IL-2 (1 bead per cell).
For inhibition studies, cells were preincubated with the indicated inhibitor for 2 hr before stimulation (See Supplementary Methods on line for the concentration of each inhibitor or activator).
To begin to dissect potential signaling pathways leading to virus reactivation, a panel of known signaling inhibitors was tested. […] As a control, and to confirm expectations that the observed latent infections represent post-integration events, the integrase inhibitor, 118-D-24, was tested (FIG. 3A).
as §2

[3] = system: Latently infected cells (DHIV-infected NP cells); assay: PHA-mediated HIV-1 reactivation in the presence of inhibitors (intracellular p24 Gag); assay type: cell-based, human
Experimental: To assess intracellular p24-gag expression, 5×10^5 cells were fixed and permeabilized with Citofix/Cytoperm during 30 min at 4° C. […] Cells were washed with Perm/Wash Buffer (BD Biosciences) and stained with 1:40 dilution of anti-p24 antibody (AG3.0) in 100 μl of Perm/Wash Buffer during 30 min at 4° C. Cells were washed with Perm/Wash Buffer and incubated with 1:100 Alexa Fluor 488 goat anti-mouse IgG (H+L) in 100 μl of Perm/Wash Buffer during 30 min at 4° C. Cells were washed with Perm/Wash Buffer and samples were analyzed by flow cytometry. Forward versus side scatter plots were used to define the live population. In all the experiments, HIV p24-gag staining regions were set with uninfected cells treated in parallel.
For inhibition studies, cells were preincubated with the indicated inhibitor for 2 hr before stimulation (See Supplementary Methods on line for the concentration of each inhibitor or activator). […]

[4] = system: tumor cell lines harboring integrated, latent HIV-1; conditions: through the activation of NFκB; cited from earlier work
latently infected cells = assay: IL-7+IL-2 induced viral reactivation in the presence of inhibitors; assay type: cell-based, human; conditions: IL-7+IL-2 stimulation
Excerpt: Understanding the intracellular mediators of IL-7/IL-2 stimulation provides additional targets toward latent virus purging. Some of these mediators can be enzymes, such as kinases and phosphatases, which may be ameneable to agonistic or antagonistic drugs. It is also important to know the IL-7/IL-2 signaling because, as noted herein, this pathway is the basis for homeostatic proliferation of memory cells, where an important proportion of proliferating cells are not inducing viral reactivation.
IL-7 stimulation induces activation of p38MAPK (a noncanonical IL-7 dependent pathway). […] Therefore, p38α is also a mediator for reactivation via IL-7.

p38α MAPK = conditions: cited from earlier work
[5] = inhibitor at the concentration of b193

Q: For Phytohemagglutinin [PHA], which “ability of agonist to reactivate viral gene expression (in words)” value (from here on “ability of agonist”) [1] is on record?
A: induced reactivation almost as efficiently as αCD3/CD28 treatment

Q: And the reactivation efficiency ([1]; relative to αCD3/CD28, formula)?
A: 79%

Q: Which “ability of agonist” value [1] does the source give for CCCCCCCCCCCCCC(=O)O[C@@H]1[C@@H](C)[C@@]2(O)[C@@H](C=C(CO)C[C@]3(O)C(=O)C(C)=C[C@@H]23)[C@@H]2C(C)(C)[C@]12OC(C)=O [PMA, phorbol 12-myristate 13-acetate] here?
A: Neither compound was able to reactivate viral gene expression; also recorded: failed to induce any degree of reactivation; also recorded: failed to induce any detectable reactivation

Q: And the “reactivation of latent viruses (in words)” value [2]?
A: Reactivation of these latent viruses was accomplished

Q: Which “ability of agonist” value [1] does the source give for CCCC(CCC)C(=O)O [VA, valproic acid] here?
A: failed to reactivate viral gene expression

Q: And the “ability of agonist” value ([1]; listed as Valproic acid)?
A: incapable of inducing viral reactivation

Q: With CC(=O)O[C@@]12C[C@@H](C)[C@@]3(O)[C@@H](C=C(CO)C[C@]4(O)C(=O)C(C)=C[C@@H]34)[C@@H]1C2(C)C [prostratin] as the compound, how does the “ability of agonist” value [1] read?
A: Neither compound was able to reactivate viral gene expression; also recorded: failed to induce any degree of reactivation

Q: With C[C@H](CCC(=O)O)C[C@H](C)C[C@H](C)C(=O)/C=C(\O)[C@H](C)C[C@H](C)C/C=C/[C@@H](C)[C@@H](O)[C@@H](C)[C@@H](O)C[C@@H]1CC[C@@](C)([C@H]2CC[C@@](C)([C@@H](C)O)O2)O1 [lonomycin, Ionomycin] as the compound, how does the “ability of agonist” value [1] read?
A: had no effect on viral reactivation; also recorded: produced no detectable reactivation

Q: Which “effect of inhibitor on viral reactivation (in words)” value (DHIV-infected NP cells; [5]) does the source give for CC(=O)c1c(O)c(C)c(O)c(Cc2c(O)c3c(c(C(=O)/C=C/c4ccccc4)c2O)OC(C)(C)C=C3)c1O [Rottlerin] here?
A: None of these three compounds had a negative effect on viral reactivation

Q: Which “effect of inhibitor on viral reactivation (in words)” value (DHIV-infected NP cells; [5]) does the source give for Cc1oncc1C(=O)Nc1ccc(C(F)(F)F)cc1 [Leflunomide] here?
A: failed to block viral reactivation

Q: And the “effect of inhibitor on viral reactivation (in words)” value (DHIV-infected NP cells; inhibitor at the concentration of b193, listed as lefluonomide)?
A: does not block reactivation in memory cells

Q: Which “effect of inhibitor on viral reactivation (in words)” value (DHIV-infected NP cells; [5]) does the source give for CN1CCCC1CCn1cc(C2=C(c3c[nH]c4ccccc34)C(=O)NC2=O)c2ccccc21 (stereo not shown) [BIM, bisindolylmaleimide II] here?
A: None of these three compounds had a negative effect on viral reactivation

Q: With CC(C)(C)n1nc(-c2ccc(Cl)cc2)c2c(N)ncnc21 [PP2] as the compound, how does the “viral reactivation with PHA in the presence of inhibitor (reactivation efficiency)” value ([3]; PHA stimulation co-incubated with inhibitor, relative to αCD3/CD28) read?
A: 3%

Q: And the “effect of inhibitor on reactivation by PHA (in words)” value ([3]; PHA stimulation plus inhibitor)?
A: completely blocked reactivation by PHA

Q: What about the inhibition of reactivation (DHIV-infected NP cells) of the same compound?
A: about 96%

Q: For Cn1c2ccccc2c2c3c(c4c5ccccc5n(CCC#N)c4c21)CNC3=O [Gö6976], which “effect of inhibitor on viral reactivation (in words)” value (DHIV-infected NP cells; [5]) is on record?
A: None of these three compounds had a negative effect on viral reactivation

Q: What does the source list for TNF-α?
A: induction of viral gene expression (in words) [4]: can induce viral gene expression; ability of agonist to reactivate viral gene expression (in words) [1]: failed to induce any degree of viral gene expression; also recorded: failed to induce any degree of reactivation; also recorded: failed to induce any detectable reactivation; reactivation of latent viruses (in words) [2]: Reactivation of these latent viruses was accomplished

Q: For Oc1ccc(-c2nc(-c3ccncc3)c(-c3ccc(F)cc3)[nH]2)cc1 [SB202190], which inhibition of reactivation (DHIV-infected NP cells) is on record?
A: 66%

Q: For O=S(=O)(NCCNC/C=C/c1ccc(Br)cc1)c1cccc2cnccc12 [H-89], which “effect of inhibitor on viral reactivation (in words)” value (DHIV-infected NP cells; [5]) is on record?
A: did not have any effect on viral reactivation

Q: Which “effect of inhibitor on viral reactivation (in words)” value (DHIV-infected NP cells; [5]) does the source give for COc1cccc(-c2cc(=O)c3ccccc3o2)c1N [PD98059] here?
A: Neither SP600125 nor PD98059 inhibited viral reactivation

Q: Which “effect of inhibitor on reactivation by IL-7+IL-2 (in words)” value (latently infected cells) does the source give for C[S+]([O-])c1ccc(-c2nc(-c3ccncc3)c(-c3ccc(F)cc3)[nH]2)cc1 (stereo not shown) [SB203580] here?
A: can block reactivation

Q: What about the “effect on IL-7 induced proliferative response (in words)” value (p38α MAPK) of the same compound?
A: abrogated the proliferative response

Q: And the inhibition of reactivation (DHIV-infected NP cells)?
A: about 66%
